According to publication PMC9286277, “Enzymatic measurement of short-chain fatty acids and application in periodontal disease diagnosis” (PLoS ONE, 2022):

What was measured:
Conditions in all cases: ATP, Mg2+; 0.1 M Tris-HCl pH 7.5; 37°C
PK (propionate kinase) = tested on: T1, PK (propionate kinase)
T1 construct: gene tdcD
Excerpt: coupled ADP-hexokinase/G6PDH NADPH assay on PK (propionate kinase)

AK (acetate kinase) = target: T2, AK (acetate kinase) (Escherichia coli, UniProt P0A6A3)
T2 construct: gene ackA
Excerpt: coupled ADP-hexokinase/G6PDH NADPH assay on AK (acetate kinase)

[1] = target: T3, His-tagged BK (butyrate kinase; ToBKIII) (Thermosediminibacter oceani, UniProt D9S2G7); assay: coupled ADP-hexokinase/G6PDH NADPH assay; assay type: biochemical
T3 construct: gene buk; entire gene (about 1,100 bp, about 360 residues) NdeI/HindIII in pET21a(+), E. coli BL21(DE3), Ni column; C-terminal vector His tag; sense primer encodes N-terminus MTFYGILA; antisense primer encodes C-terminus EKPKEYL before HindIII site (KL)
T3 sequence (D9S2G7 1-357): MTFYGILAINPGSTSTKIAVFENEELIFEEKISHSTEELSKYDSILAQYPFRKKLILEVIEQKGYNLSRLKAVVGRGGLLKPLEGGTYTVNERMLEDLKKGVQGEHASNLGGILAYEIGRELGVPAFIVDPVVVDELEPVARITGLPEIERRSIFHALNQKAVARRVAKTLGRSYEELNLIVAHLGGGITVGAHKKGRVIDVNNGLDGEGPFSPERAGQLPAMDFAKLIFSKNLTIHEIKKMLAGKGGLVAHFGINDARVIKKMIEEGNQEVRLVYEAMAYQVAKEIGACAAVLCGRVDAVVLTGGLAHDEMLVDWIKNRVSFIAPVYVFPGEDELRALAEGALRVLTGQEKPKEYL
Excerpt: coupled ADP-hexokinase/G6PDH NADPH assay on His-tagged BK (butyrate kinase; ToBKIII)

T2 sequence (P0A6A3 whole entry): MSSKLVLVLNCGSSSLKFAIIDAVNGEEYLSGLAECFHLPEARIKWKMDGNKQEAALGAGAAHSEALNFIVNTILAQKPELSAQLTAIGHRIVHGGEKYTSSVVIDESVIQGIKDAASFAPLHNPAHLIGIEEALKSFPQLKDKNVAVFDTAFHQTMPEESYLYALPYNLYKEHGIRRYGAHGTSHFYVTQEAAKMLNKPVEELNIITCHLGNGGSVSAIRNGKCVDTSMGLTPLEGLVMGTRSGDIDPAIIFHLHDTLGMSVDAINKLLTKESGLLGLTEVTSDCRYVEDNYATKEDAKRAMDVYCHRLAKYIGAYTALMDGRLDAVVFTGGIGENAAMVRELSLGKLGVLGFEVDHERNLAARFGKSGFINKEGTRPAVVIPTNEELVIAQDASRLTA

CC(=O)O [C2, acetic acid] was tested, and the “PK / Km” value (PK (propionate kinase)) was 13.2 mmol and the “AK / Km” value (AK (acetate kinase)) was 9.1 mmol.

With CCC(=O)O [C3, propionic acid] the “PK / Km” value (PK (propionate kinase)) was 1.8 mmol and the “BK / Km” value [1] was 5.1 mmol.

CCCC(=O)O [C4, butyric acid] was tested, and the “PK / Km” value (PK (propionate kinase)) was 280 mmol and the “BK / Km” value [1] was 2.2 mmol.

In the case of CCCCC(=O)O [C5, valeric acid], the “BK / Km” value [1] was 3.3 mmol.

CCCCCC(=O)O [C6, caproic acid] was tested, and the “BK / Km” value [1] was 8.7 mmol.

CC(C)C(=O)O [IC4, isobutyric acid] was tested, and the “BK / Km” value [1] was 3.2 mmol.

With CC(C)CC(=O)O [IC5, isovaleric acid] the “BK / Km” value [1] was 2.1 mmol.
